This passage reports logP results from the SangsterLogP compilation.

Structures are written as SMILES.

In the case of `CCOc1ccc(-n2nc(C(=O)NC(C(=O)NC3C(=O)N4C(C(=O)O)=C(C)CSC34)c3ccccc3)c(=O)[nH]c2=O)cc1` (centres undefined), the logP (commonly a log measure of how a compound divides between an organic and an aqueous phase) worked out at 5.16. In the case of `CC(=O)c1ccc(-n2nc(C(=O)NC(C(=O)NC3C(=O)N4C(C(=O)O)=C(C)CSC34)c3ccccc3)c(=O)[nH]c2=O)cc1` (centres undefined), the logP amounted to 2.71. The compound `CC1=C(C(=O)O)N2C(=O)[C@@H](NC(=O)[C@H](NC(=O)c3nn(-c4ccccc4)c(=O)[nH]c3=O)c3ccc(O)cc3)[C@H]2SC1` had a logP of 1.26. Next, `CC1=C(C(=O)O)N2C(=O)C(NC(=O)C(NC(=O)c3nn(-c4ccc(Cl)cc4Cl)c(=O)[nH]c3=O)c3ccccc3)C2SC1` (centres undefined): 4.97.

Regarding `CC1=C(C(=O)O)N2C(=O)C(NC(=O)C(NC(=O)c3nn(-c4ccccc4)c(=O)[nH]c3=O)c3ccccc3)C2SC1` (centres undefined), the logP turned out to be 3.19. With `CC1=C(C(=O)O)N2C(=O)C(NC(=O)C(NC(=O)c3nn(-c4ccc(F)c(Cl)c4)c(=O)[nH]c3=O)c3ccc(O)cc3)C2SC1` (centres undefined), the logP amounted to 3.1.

For `CC1=C(C(=O)O)N2C(=O)C(NC(=O)C(NC(=O)c3nn(-c4ccc(Cl)cc4Cl)c(=O)[nH]c3=O)c3ccc(O)cc3)C2SC1` (centres undefined), the lipophilicity (logP) turned out to be 3.08. Next, `CC(=O)c1ccc(-n2nc(C(=O)NC(C(=O)NC3C(=O)N4C(C(=O)O)=C(C)CSC34)c3cccc(O)c3)c(=O)[nH]c2=O)cc1` (centres undefined): -0.04; `CC1=C(C(=O)O)N2C(=O)C(NC(=O)C(NC(=O)c3nn(-c4ccc(Cl)cc4)c(=O)[nH]c3=O)c3ccccc3)C2SC1` (centres undefined): 4.91. On to `COc1ccc(-n2nc(C(=O)NC(C(=O)NC3C(=O)N4C(C(=O)O)=C(C)CSC34)c3ccccc3)c(=O)[nH]c2=O)cc1` (centres undefined), for which the logP came to 3.87.

The compound `CC1=C(C(=O)O)N2C(=O)C(NC(=O)C(NC(=O)c3nn(-c4ccc(C)cc4)c(=O)[nH]c3=O)c3ccccc3)C2SC1` (centres undefined) had a lipophilicity (logP) of 4.8.

Regarding `CC1=C(C(=O)O)N2C(=O)C(NC(NC(=O)c3nn(-c4ccc(S(N)(=O)=O)cc4)c(=O)[nH]c3=O)c3ccc(O)cc3)C2SC1` (centres undefined), the logP is -0.39.

Compound `CC1=C(C(=O)O)N2C(=O)C(NC(=O)C(NC(=O)c3nn(-c4ccc([N+](=O)[O-])cc4)c(=O)[nH]c3=O)c3ccccc3)C2SC1` (centres undefined) yielded a log partition coefficient (logP) of 3.15. Under `CC1=C(C(=O)O)N2C(=O)C(NC(=O)C(NC(=O)c3nn(-c4ccc(C)cc4)c(=O)[nH]c3=O)c3cccc(O)c3)C2SC1` (centres undefined) stands 2.53.
